Data set [1] in a line: Half life in Sprague-Dawley rat at 2.5 mg/kg, po measured upto 24 hrs by LC-MS/MS analysis. Format: ADME, organism-based. To be noted: in vivo.
Data set [2] is described as follows: Half life in Sprague-Dawley rat at 0.5 mg/kg, iv measured upto 24 hrs by LC-MS/MS analysis. Format: ADME, organism-based. To be noted: in vivo.
The nature of data set [3]: Cmax in Sprague-Dawley rat at 2.5 mg/kg, po measured upto 24 hrs by LC-MS/MS analysis. Details: dose 2.5 mg/kg, time < 24 hrs, route po. The data set is classed as ADME, organism-based. The note with it: in vivo.
Data set [4] is described as follows: Cmax in Sprague-Dawley rat at 0.5 mg/kg, iv measured upto 24 hrs by LC-MS/MS analysis. Details: time < 24 hrs, dose 0.5 mg/kg, route iv. The note with it: in vivo. The data set is classed as ADME, organism-based.
The nature of data set [5]: AUClast in Sprague-Dawley rat at 2.5 mg/kg, po measured upto 24 hrs by LC-MS/MS analysis. The note with it: in vivo. On the set-up: dose 2.5 mg/kg, time < 24 hrs, route po. The data set is classed as ADME, organism-based.
Data set [6] in a line: AUClast in Sprague-Dawley rat at 0.5 mg/kg, iv measured upto 24 hrs by LC-MS/MS analysis. The data set is classed as ADME, organism-based. On the set-up: time < 24 hrs, dose 0.5 mg/kg, route iv. The note with it: in vivo.
The nature of data set [7]: Volume of distribution at steady state in Sprague-Dawley rat at 0.5 mg/kg, iv measured upto 24 hrs by LC-MS/MS analysis. Format: ADME, organism-based. The note with it: in vivo, read-out: Vdss.
Data set [8] in a line: Apparent […] clearance in Sprague-Dawley rat at 0.5 mg/kg, iv measured upto 24 hrs by LC-MS/MS analysis. Format: ADME, organism-based. To be noted: in vivo.
The nature of data set [9]: Oral bioavailability in Sprague-Dawley rat at 2.5 mg/kg measured upto 24 hrs by LC-MS/MS analysis. Format: ADME, organism-based. To be noted: in vivo.
The nature of data set [10]: Metabolic stability in human liver microsomes assessed as half life at 1 uM measured upto 90 mins by LC-MS/MS analysis. Format: ADME, Microsome. A general note: Liver microsomes are a subcellular fraction often used to study metabolism.
The nature of data set [11]: Metabolic stability in human liver microsomes assessed as clearance at 1 uM measured upto 90 mins by LC-MS/MS analysis. The data set is classed as ADME, Microsome. The note with it: read-out: CLH.
The nature of data set [12]: Metabolic stability in rat liver microsomes assessed as half life at 1 uM measured upto 90 mins by LC-MS/MS analysis. Format: ADME, Microsome.
Data set [13] in a line: Metabolic stability in rat liver microsomes assessed as clearance at 1 uM measured upto 90 mins by LC-MS/MS analysis. The data set is classed as ADME, Microsome. To be noted: read-out: CLH.
Data set [14] in a line: Half life in Sprague-Dawley rat at 5 mg/kg, po measured upto 24 hrs by LC-MS/MS analysis. The data set is classed as ADME, organism-based. The note with it: in vivo.
The nature of data set [15]: Half life in Sprague-Dawley rat at 1 mg/kg, iv measured upto 24 hrs by LC-MS/MS analysis. Format: ADME, organism-based. To be noted: in vivo.
Data set [16] in a line: Cmax in Sprague-Dawley rat at 5 mg/kg, po measured upto 24 hrs by LC-MS/MS analysis. The data set is classed as ADME, organism-based. Details: dose 5 mg/kg, time < 24 hrs, route po. The note with it: in vivo.
Data set [17] in a line: Cmax in Sprague-Dawley rat at 1 mg/kg, iv measured upto 24 hrs by LC-MS/MS analysis. The data set is classed as ADME, organism-based. Details: dose 1 mg/kg, time < 24 hrs, route iv. The note with it: in vivo.
Data set [18] can be described thus: AUClast in Sprague-Dawley rat at 5 mg/kg, po measured upto 24 hrs by LC-MS/MS analysis. On the set-up: dose 5 mg/kg, time < 24 hrs, route po. The data set is classed as ADME, organism-based. To be noted: in vivo.
Data set [19] is described as follows: AUClast in Sprague-Dawley rat at 1 mg/kg, iv measured upto 24 hrs by LC-MS/MS analysis. Format: ADME, organism-based. To be noted: in vivo. Details: dose 1 mg/kg, time < 24 hrs, route iv.
The nature of data set [20]: Volume of distribution at steady state in Sprague-Dawley rat at 1 mg/kg, iv measured upto 24 hrs by LC-MS/MS analysis. The data set is classed as ADME, organism-based. To be noted: in vivo, read-out: Vdss.
Data set [21] in a line: Apparent […] clearance in Sprague-Dawley rat at 1 mg/kg, iv measured upto 24 hrs by LC-MS/MS analysis. The data set is classed as ADME, organism-based. The note with it: in vivo.
A short description of data set [22]: Oral bioavailability in Sprague-Dawley rat at 5 mg/kg measured upto 24 hrs by LC-MS/MS analysis. Format: ADME, organism-based. To be noted: in vivo.

As for `CC(C)n1cnnc1-c1cccc(NC(=O)c2cc3c(cc2F)OC(C)(C)C(=O)N3)n1`, the half-life in [1] was 1.39 h; in data set [2], 0.74 h. In addition, the Cmax in data set [3] stood at 554 ng/mL; in data set [4], 350 ng/mL. Moreover, the AUC(0-t) at 24 h worked out at 1260 ng·h/mL in data set [5] and 276 ng·h/mL in data set [6]. Further, the Vd in data set [7] turned out to be 1.35 L/kg. Moreover, the CL/F in data set [8] is 30 mL/min/kg. The bioavailability in [9] amounted to 95%.
In the case of `O=C1CCc2cc(F)c(C(=O)Nc3cccc(-c4nncn4C4CC4)n3)cc2N1`, the half-life at 1 µM in data set [10] was determined as 7.54 h; in data set [12], 4.07 h. The CLint scaled at 1 µM in data set [11] is 3.8 mL/min/kg; in data set [13], 10.2 mL/min/kg. Also, the results for the half-life in [1] and in data set [2] were 2 h and 0.72 h, respectively. In addition, the values for the Cmax in data set [3] and in data set [4] were 345 ng/mL and 447 ng/mL, respectively. For the same compound, the AUC(0-t) at 24 h in data set [5] came to 1330 ng·h/mL; in data set [6], 469 ng·h/mL. Moreover, the Vd in data set [7] was determined as 0.96 L/kg. Also, the CL/F in [8] is 17.7 mL/min/kg. Also, in [9], the bioavailability is 57.4%.
Turning to `O=C1COc2cc(F)c(C(=O)Nc3cccc(-c4nncn4C4CC4)n3)cc2N1`, the values for the half-life at 1 µM in [10] and in data set [12] were 7.24 h and 4.08 h, respectively. The CLint scaled at 1 µM in data set [11] was determined as 4 mL/min/kg; in [13], 10.2 mL/min/kg. Besides, the results for the half-life in data set [1] and in data set [2] were 2.07 h and 0.97 h, respectively. Further, the Cmax in data set [3] came out at 832 ng/mL; in data set [4], 489 ng/mL. For the same compound, the AUC(0-t) at 24 h in [5] was 2390 ng·h/mL; in data set [6], 592 ng·h/mL. Also, in data set [7], the Vd was 1.07 L/kg. For the same compound, the CL/F in data set [8] is 14 mL/min/kg. In addition, the bioavailability in [9] is 83.6%.
In the case of `CC(C)n1cnnc1-c1cccc(NC(=O)c2cc3c(cc2F)OC(C)(C)C(=O)N3C)n1`, the half-life at 1 µM in data set [10] stood at 5.26 h; in data set [12], 1.52 h. Further, the results for the CLint scaled at 1 µM in data set [11] and in data set [13] were 5.5 mL/min/kg and 27.3 mL/min/kg, respectively. Moreover, the half-life in [1] was 1.3 h; in [2], 0.71 h. Besides, the highest concentration (Cmax) in data set [3] turned out to be 417 ng/mL; in data set [4], 239 ng/mL. Moreover, the AUC(0-t) at 24 h in [5] amounted to 767 ng·h/mL; in data set [6], 218 ng·h/mL. Moreover, the Vd in data set [7] came to 1.88 L/kg. In data set [8], the CL/F is 38 mL/min/kg. The compound also yielded a bioavailability in data set [9] of 72.2%.
`O=C(Nc1cccc(-c2nncn2CC2CC2)c1)c1cc2c(cc1F)OCc1cncn1-2`: the half-life at 1 µM amounted to 1.12 h in data set [10] and 0.167 h in data set [12]. Besides, the CLint scaled at 1 µM in data set [11] stood at 25.8 mL/min/kg; in [13] it was 248 mL/min/kg. In addition, the half-life in data set [14] is 0.97 h; in data set [15], 0.55 h. For the same compound, the results for the Cmax in data set [16] and in data set [17] were 635 ng/mL and 812 ng/mL, respectively. The AUC(0-t) at 24 h in [18] is 865 ng·h/mL; in data set [19] it was 431 ng·h/mL. The Vd in data set [20] was found to be 1.08 L/kg. Moreover, the apparent clearance CL/F in data set [21] was 38.5 mL/min/kg. Also, in [22], the bioavailability was found to be 40.2%.
With `CC(C)n1cnnc1-c1cccc(NC(=O)c2cc3c(cc2F)OCc2cncn2-3)n1`, the half-life at 1 µM in [10] was 1.78 h; in [12] it was 0.187 h. The figures for the CLint scaled at 1 µM in data set [11] and in data set [13] were 16.3 mL/min/kg and 222 mL/min/kg, respectively. In addition, the half-life was 1.1 h in data set [14] and 0.67 h in [15]. The results for the Cmax in [16] and in [17] were 794 ng/mL and 793 ng/mL, respectively. In addition, the area under the curve AUC(0-t) at 24 h in data set [18] worked out at 2280 ng·h/mL; in [19] it was 529 ng·h/mL. The Vd in data set [20] is 1.22 L/kg. Moreover, the CL/F in data set [21] was 31.3 mL/min/kg. This compound also came in with a bioavailability in [22] of 86.9%.
As for `CC(C)n1cnnc1-c1cccc(NC(=O)c2cc3c(cc2F)CCCC(=O)N3)c1`, the half-life at 1 µM in data set [10] stood at 8.31 h; in data set [12], 6.69 h. The results for the CLint scaled at 1 µM in data set [11] and in data set [13] were 3.5 mL/min/kg and 6.2 mL/min/kg, respectively. The half-life was 1.84 h in [14] and 0.72 h in data set [15]. Besides, the Cmax in data set [16] turned out to be 109 ng/mL; in [17] it was 420 ng/mL. The results for the AUC(0-t) at 24 h in data set [18] and in [19] were 252 ng·h/mL and 320 ng·h/mL, respectively. In addition, the Vd in [20] was found to be 2.19 L/kg. The CL/F in [21] was 52 mL/min/kg. The compound further had a bioavailability in data set [22] of 16%.
As to `CC(CO)n1cnnc1-c1cccc(NC(=O)c2cc3c(cc2F)OCC(=O)N3)n1` (stereo not drawn), the half-life at 1 µM in data set [10] was found to be 2.96 h; in data set [12], 2.12 h. The CLint scaled at 1 µM was determined as 9.8 mL/min/kg in data set [11] and 19.5 mL/min/kg in data set [13]. Besides, the half-life was 1.55 h in [14] and 0.22 h in data set [15]. Besides, the Cmax was 27 ng/mL in [16] and 514 ng/mL in data set [17]. Also, the AUC(0-t) at 24 h came to 21 ng·h/mL in [18] and 229 ng·h/mL in data set [19]. For the same compound, the Vd in data set [20] is 1.25 L/kg. Also, the CL/F in data set [21] is 72.5 mL/min/kg. Also, the bioavailability in [22] was 2.1%.
Regarding `CC(C)n1cnnc1-c1cccc(NC(=O)c2cc3c(cc2F)OCC(=O)N3C)n1`, the results for the half-life at 1 µM in [10] and in [12] were 5.67 h and 2.46 h, respectively. In addition, the values for the CLint scaled at 1 µM in data set [11] and in data set [13] were 5.1 mL/min/kg and 16.8 mL/min/kg, respectively. Besides, the half-life in [14] is 2.11 h; in data set [15], 1.62 h. The results for the Cmax in data set [16] and in data set [17] were 1830 ng/mL and 779 ng/mL, respectively. The AUC(0-t) at 24 h in data set [18] stood at 10900 ng·h/mL; in data set [19], 2220 ng·h/mL. Also, the Vd in data set [20] amounted to 1.49 L/kg. The apparent clearance (CL/F) in data set [21] is 7.5 mL/min/kg. Also, the bioavailability in data set [22] turned out to be 97.9%.

The term half-life denotes how long it takes for the measured level to halve. One may read the Cmax as the peak of the concentration-time curve. One may read the AUC(0-t) as exposure summed from dosing to a finite time, without extrapolation to infinity. Read a high AUC(0-t) as more exposure. One may read the CL/F as clearance divided by bioavailability, as obtained after extravascular dosing. One may read the bioavailability as dose-corrected exposure relative to a reference, in per cent. Lower therefore signals poor availability.

(Values after ChEMBL document CHEMBL5344477, “Discovery of benzoheterocyclic-substituted amide derivatives as apoptosis signal-regulating kinase 1 (ASK1) inhibitors” (RSC Med Chem, 2024).)
